# Activity calls are given as the source filed them.
# Key:
# [1] = target: Glyceraldehyde-3-phosphate dehydrogenase (Homo sapiens, UniProt P04406)
# HT-1080 = assay: HT1080 cell viability loss – fluorescence readout (AID 620); format: functional, cell-based; details: Homo sapiens
# [2] = target: T1, Luciferin 4-monooxygenase (Photinus pyralis, UniProt P08659); assay: Counter Screen for Luciferase-based Assay Positives. [Related pubchem assays: 620, 618, 411 ]
# [3] = HEK-293T cell viability reduction – luminescence, B-cell screen hits, cytotoxicity control for BCR NF-kB inhibitor project, dose response (AID 489021); format: functional, cell-based;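 note: HEK-293T cells carrying an NF-kB luciferase reporter; cells exposed to compound for about 14 hours before viability readout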
# [4] = target: DNA dC->dU-editing enzyme APOBEC-3A (Homo sapiens, UniProt P31941); assay: A3A deaminase inhibition for selectivity – biochemical, dose response (AID 504722); format: functional
# [5] = target: T2, Heat shock factor protein 1 (Mus musculus, UniProt P38532); assay: decrease of HSF1-responsive luciferase luminescence – cell-based, NIH3T3, dose retest, confirmation (AID 2382); format: functional;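 note: NIH3T3 fibroblasts with HSF1-driven luciferase reporter stressed by proteasome inhibitor MG132; luminescence from HSF1-driven luciferase expression after 8 hours of MG132 stress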
# T2 sequence (P38532 whole entry): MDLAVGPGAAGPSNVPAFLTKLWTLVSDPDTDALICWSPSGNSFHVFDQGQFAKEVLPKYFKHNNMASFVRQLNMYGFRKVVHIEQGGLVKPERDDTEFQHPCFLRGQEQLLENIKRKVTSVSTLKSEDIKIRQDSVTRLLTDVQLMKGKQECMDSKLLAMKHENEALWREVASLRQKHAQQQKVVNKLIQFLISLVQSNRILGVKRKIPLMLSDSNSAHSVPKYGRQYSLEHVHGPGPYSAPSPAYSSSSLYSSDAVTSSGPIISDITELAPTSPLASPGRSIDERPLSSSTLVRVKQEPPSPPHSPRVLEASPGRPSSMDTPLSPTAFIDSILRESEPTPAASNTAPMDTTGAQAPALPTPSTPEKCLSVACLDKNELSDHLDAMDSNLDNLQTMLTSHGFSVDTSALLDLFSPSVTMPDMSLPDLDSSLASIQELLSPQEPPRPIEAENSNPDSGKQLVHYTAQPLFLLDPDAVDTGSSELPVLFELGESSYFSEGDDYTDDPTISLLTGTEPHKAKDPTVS
# [6] = target: DNA dC->dU-editing enzyme APOBEC-3G (Homo sapiens, UniProt Q9HC16); assay: Dose Response confirmation of small molecule APOBEC3G DNA Deaminase Inhibitors via a fluorescence-based single-stranded DNA deaminase assay. [Related pubchem assays (depositor defined):AID493012, AID493028]; format: functional
# [7] = luciferase reporter signal suppression in cells – H4 neuroglioma cells, luminescence, dose response (AID 1990); format: functional, cell-based
# [8] = alpha-synuclein stem-loop luciferase translation blockers – H4 neuroglioma cells, luminescence, confirmation (AID 1988); format: functional, cell-based
# [9] = off-target signal loss in HeLa-CEM21 co-culture – HeLa F-luc CTL cells, cherry-picked, counter-screen for HIV-1 Env fusion inhibitor project, dose response (AID 652040); format: functional, cell-based;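 note: potency for signal decrease marking cytotoxic or nonspecific inhibition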
# [10] = Luminescence Cell-Based Dose Response HTS to Identify Inhibitors of 5'UTR Stem-Loop Driven Prion Protein mRNA Translation in H4 Neuroglioblastoma Cells. [Related pubchem assays: 1827 (Project Summary), 1813 (Primary HTS)]; format: functional
# [11] = target: T1, Luciferin 4-monooxygenase; assay: inhibition of purified Photinus pyralis luciferase – biochemical, luminescence, dose response (AID 1891)
# [12] = target: Glucose-6-phosphate 1-dehydrogenase (Homo sapiens, UniProt P11413); assay: inhibition of Homo sapiens G6PD, dose series – biochemical, fluorescence, selectivity assay for P. falciparum G6PD inhibitor project, dose response (AID 504792); format: functional
# [13] = target: T3, Short transient receptor potential channel 4 (Mus musculus, UniProt Q9QUQ5); assay: block of DAMGO-driven TRPC4 calcium entry – cell-based, HEK293 TRPC4/mu-opioid, Fluo-4 calcium, dose response (AID 434942); format: functional;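 note: potency of inhibitors blocking the TRPC4 calcium response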
# T3 sequence (Q9QUQ5 whole entry): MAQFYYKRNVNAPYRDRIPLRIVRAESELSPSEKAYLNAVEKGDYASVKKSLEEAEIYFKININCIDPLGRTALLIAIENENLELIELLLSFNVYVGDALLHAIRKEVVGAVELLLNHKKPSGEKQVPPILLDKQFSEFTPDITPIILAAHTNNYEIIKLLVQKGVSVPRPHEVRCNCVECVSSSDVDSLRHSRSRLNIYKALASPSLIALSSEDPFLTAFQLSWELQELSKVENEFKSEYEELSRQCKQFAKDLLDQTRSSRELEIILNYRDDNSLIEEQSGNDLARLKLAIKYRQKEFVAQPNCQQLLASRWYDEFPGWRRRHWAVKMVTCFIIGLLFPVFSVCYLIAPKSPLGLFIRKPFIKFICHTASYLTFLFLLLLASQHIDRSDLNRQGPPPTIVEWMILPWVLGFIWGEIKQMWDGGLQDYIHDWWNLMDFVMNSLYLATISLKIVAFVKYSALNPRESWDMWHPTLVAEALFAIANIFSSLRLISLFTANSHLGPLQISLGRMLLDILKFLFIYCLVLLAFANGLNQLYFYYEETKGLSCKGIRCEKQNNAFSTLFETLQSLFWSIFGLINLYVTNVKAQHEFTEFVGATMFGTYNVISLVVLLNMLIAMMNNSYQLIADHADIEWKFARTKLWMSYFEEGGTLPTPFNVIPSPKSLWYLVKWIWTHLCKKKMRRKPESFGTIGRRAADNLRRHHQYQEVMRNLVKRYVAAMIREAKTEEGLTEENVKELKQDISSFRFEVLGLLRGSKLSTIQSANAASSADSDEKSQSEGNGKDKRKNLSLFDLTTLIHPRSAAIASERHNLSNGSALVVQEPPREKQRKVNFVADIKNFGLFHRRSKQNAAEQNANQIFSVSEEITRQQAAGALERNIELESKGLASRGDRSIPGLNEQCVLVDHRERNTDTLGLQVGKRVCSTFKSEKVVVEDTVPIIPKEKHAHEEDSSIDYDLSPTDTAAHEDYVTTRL
# [14] = target: T4, Corticotropin-releasing factor receptor 2/Corticotropin-releasing factor-binding protein (Homo sapiens, UniProt P24387+Q13324); assay: activators of CRF receptor 2 with binding protein – uHTS hits, confirmation (AID 602473); format: functional; details: read-out: EC50_Mean
# T4 sequence (Q13324 whole entry): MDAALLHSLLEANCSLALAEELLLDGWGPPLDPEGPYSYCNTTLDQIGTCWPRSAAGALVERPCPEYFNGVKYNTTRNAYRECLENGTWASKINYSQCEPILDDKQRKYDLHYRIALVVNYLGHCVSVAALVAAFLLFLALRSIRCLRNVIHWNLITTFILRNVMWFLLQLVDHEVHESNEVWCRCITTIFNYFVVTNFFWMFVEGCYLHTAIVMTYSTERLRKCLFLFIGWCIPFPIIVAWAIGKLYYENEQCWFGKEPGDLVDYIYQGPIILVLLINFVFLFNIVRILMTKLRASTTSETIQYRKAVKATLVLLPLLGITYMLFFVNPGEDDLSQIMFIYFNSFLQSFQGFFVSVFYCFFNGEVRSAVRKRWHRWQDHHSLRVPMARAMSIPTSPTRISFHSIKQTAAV
# T4 sequence (P24387 whole entry): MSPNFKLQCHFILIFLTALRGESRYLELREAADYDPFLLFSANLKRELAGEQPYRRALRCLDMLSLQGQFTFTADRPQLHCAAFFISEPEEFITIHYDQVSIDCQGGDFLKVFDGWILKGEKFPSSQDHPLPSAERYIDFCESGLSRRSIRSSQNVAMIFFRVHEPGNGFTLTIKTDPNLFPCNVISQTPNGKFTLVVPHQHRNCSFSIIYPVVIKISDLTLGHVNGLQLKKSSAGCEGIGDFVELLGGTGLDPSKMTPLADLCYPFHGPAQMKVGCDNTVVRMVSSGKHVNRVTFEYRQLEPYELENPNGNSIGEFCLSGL
# [15] = target: T4, Corticotropin-releasing factor receptor 2/Corticotropin-releasing factor-binding protein; assay: Dose Response confirmation of uHTS hits for small molecule antagonists of the CRF-binding protein and CRF-R2 receptor complex.; format: functional; details: read-out: IC50_Mean
# [16] = viability of uninfected HEp-2 cells – cell-based, HTS, cytotoxicity control for RSV inhibitor project, dose response (AID 2410); format: functional; details: human respiratory syncytial virus
# [17] = target: Eukaryotic translation initiation factor 4E (Mus musculus, UniProt P63073); assay: blockers of eIF4G binding by eIF4E – biochemical, TR-FRET, dose response (AID 855); format: functional;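 note: potency for disrupting eIF4E binding to eIF4GI seen as loss of FRET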
# [18] = target: Induced myeloid leukemia cell differentiation protein Mcl-1 (Homo sapiens, UniProt Q07820); format: functional
# Coagulation factor XII = target: T5, Coagulation factor XII (Homo sapiens, UniProt P00748); format: functional;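 note: activated factor XIIa alpha cleaving a fluorogenic AMC peptide substrate; inhibitor potency from loss of enzyme activity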
# T5 sequence (P00748 whole entry): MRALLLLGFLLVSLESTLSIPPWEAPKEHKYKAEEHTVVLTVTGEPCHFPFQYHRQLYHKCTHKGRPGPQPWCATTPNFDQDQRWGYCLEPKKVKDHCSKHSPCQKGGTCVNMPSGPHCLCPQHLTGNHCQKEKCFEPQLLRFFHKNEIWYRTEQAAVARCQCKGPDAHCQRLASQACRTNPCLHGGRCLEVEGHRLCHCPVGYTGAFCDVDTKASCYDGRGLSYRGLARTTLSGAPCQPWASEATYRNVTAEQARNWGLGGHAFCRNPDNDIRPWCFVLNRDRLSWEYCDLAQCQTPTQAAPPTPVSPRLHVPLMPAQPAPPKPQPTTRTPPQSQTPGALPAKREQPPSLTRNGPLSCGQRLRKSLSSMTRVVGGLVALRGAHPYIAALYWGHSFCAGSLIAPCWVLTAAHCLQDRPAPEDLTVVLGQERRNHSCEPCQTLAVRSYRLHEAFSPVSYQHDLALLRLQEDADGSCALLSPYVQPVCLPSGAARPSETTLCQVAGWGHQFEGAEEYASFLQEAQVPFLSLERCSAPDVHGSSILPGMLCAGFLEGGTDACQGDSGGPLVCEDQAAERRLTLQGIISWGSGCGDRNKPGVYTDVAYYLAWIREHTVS
# [19] = Dd2 malaria parasite growth inhibition potency – SYBR Green, dry powder samples, dose response (AID 1159566); format: functional, cell-based;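 note: potency for growth inhibition with lower SYBR green DNA signal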
# [20] = growth inhibition of PfATP4-mutant resistant parasites – NITD609-resistant line, SYBR Green, dry powder, dose response (AID 1159571); format: functional, cell-based;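 note: parasites synchronized at ring stage by sorbitol before testing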
# [21] = growth inhibition of yeast DHODH-expressing 3D7 parasites – SYBR Green, dry powder samples, dose response (AID 1159570); format: functional, cell-based;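 note: parasite growth measured after 72 hours of compound exposure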
# [22] = P. falciparum Dd2 growth inhibitors, dose response, SYBR Green, cherry-picked samples (AID 1159567); format: functional, cell-based
# T1 sequence (P08659 whole entry): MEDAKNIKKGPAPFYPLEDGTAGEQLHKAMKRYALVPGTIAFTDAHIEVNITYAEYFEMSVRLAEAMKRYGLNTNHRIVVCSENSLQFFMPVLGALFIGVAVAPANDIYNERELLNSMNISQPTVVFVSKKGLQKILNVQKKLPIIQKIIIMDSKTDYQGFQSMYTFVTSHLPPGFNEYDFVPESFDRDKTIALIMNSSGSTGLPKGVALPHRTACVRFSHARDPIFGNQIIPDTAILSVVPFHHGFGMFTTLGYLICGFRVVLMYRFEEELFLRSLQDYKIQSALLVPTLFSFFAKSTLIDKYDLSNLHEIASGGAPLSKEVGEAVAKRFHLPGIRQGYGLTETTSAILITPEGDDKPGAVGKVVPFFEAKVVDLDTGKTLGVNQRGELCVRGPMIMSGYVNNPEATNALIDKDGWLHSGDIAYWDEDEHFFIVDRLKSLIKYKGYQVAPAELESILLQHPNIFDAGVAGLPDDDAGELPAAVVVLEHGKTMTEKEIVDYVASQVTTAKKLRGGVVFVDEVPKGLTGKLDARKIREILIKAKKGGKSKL
# Chain of DNA dC->dU-editing enzyme APOBEC-3G (Q9HC16 whole entry): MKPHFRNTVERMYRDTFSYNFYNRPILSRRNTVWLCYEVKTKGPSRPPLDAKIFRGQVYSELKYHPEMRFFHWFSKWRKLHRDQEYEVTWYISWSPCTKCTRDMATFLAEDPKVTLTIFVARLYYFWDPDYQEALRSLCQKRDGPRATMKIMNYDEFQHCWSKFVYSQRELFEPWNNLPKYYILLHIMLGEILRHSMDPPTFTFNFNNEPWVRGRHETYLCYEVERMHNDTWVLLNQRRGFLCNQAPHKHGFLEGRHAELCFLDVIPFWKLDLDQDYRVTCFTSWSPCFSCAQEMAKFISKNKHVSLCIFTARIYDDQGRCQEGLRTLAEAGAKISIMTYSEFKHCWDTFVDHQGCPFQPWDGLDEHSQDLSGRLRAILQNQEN
# Chain of DNA dC->dU-editing enzyme APOBEC-3A (P31941 whole entry): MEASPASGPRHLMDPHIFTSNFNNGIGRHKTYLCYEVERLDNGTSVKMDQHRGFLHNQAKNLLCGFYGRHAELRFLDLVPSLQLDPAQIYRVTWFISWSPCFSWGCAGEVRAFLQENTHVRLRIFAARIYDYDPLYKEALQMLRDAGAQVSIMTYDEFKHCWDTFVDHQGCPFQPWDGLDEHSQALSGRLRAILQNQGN
# Chain of Eukaryotic translation initiation factor 4E (P63073 whole entry): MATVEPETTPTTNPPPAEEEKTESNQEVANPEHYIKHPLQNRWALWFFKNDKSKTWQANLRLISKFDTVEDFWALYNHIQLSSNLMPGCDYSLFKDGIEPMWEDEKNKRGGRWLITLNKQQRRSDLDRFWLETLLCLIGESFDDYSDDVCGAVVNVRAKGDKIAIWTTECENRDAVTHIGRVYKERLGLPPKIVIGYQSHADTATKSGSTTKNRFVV
# Chain of Glucose-6-phosphate 1-dehydrogenase (P11413 whole entry): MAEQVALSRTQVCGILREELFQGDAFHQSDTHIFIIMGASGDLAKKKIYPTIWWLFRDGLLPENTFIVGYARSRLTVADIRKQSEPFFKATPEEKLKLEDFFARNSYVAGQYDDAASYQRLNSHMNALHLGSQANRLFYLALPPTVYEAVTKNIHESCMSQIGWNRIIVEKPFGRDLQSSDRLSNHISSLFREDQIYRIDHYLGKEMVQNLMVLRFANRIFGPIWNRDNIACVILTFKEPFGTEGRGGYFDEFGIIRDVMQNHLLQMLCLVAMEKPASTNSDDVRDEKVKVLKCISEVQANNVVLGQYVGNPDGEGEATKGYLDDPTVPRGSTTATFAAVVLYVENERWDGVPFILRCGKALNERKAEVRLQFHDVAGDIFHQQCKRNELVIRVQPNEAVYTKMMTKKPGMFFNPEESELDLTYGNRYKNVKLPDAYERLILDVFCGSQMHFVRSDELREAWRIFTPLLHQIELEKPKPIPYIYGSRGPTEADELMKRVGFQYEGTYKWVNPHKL
# Chain of Induced myeloid leukemia cell differentiation protein Mcl-1 (Q07820 whole entry): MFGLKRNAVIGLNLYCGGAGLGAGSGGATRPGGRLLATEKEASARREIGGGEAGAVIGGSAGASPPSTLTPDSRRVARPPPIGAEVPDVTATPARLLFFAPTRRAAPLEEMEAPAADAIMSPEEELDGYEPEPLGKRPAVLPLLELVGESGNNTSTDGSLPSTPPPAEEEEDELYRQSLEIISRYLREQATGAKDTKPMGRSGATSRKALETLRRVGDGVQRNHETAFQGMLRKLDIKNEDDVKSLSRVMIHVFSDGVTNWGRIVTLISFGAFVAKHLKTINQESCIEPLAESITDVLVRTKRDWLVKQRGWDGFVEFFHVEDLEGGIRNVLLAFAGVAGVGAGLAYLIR
# Chain of Glyceraldehyde-3-phosphate dehydrogenase (P04406 whole entry): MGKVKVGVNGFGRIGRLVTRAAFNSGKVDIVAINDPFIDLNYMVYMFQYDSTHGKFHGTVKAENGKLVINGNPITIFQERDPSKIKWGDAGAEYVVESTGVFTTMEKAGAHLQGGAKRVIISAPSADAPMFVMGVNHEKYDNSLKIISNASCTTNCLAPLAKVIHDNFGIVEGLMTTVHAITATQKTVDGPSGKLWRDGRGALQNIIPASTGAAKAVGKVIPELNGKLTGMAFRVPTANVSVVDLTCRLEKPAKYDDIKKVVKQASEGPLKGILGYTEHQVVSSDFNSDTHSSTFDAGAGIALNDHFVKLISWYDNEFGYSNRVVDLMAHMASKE
smiles,measurement,setting,value
Cc1ccoc1C(=O)Nc1ccc(CC(=O)O)cc1,IC50,[1],> 100 µM (not active)
same,EC50,HT-1080,> 50 µM (not active)
same,EC50,[2],1.12 µM (active)
same,IC50,[3],> 80 µM (inactive)
COCCn1c(-c2ccc(Cl)cc2Cl)nc2c(c(=O)c3ccccc3n2C)c1=O,IC50,cells,> 50 µM (active)
CC1(C)Cc2ccccc2-c2n[nH]c(=S)n21,IC50,[4],> 100 µM (inactive)
same,EC50,[5],> 195 µM (not active)
same,IC50,[6],4.33 µM (active)
COc1ccc(OC)c(-c2cc(C(=O)Nc3c(C)nn(Cc4ccc(Cl)cc4)c3C)no2)c1,EC50,[7],13.6 µM (active)
same,EC50,[8],13.9 µM (active)
same,AC50,[9],> 70 µM (inactive)
same,EC50,[10],19.5 µM (active)
Cc1[nH]c(=S)c(C#N)c(C)c1CCC#N,EC50,[11],> 112 µM (not active)
same,IC50,[4],> 100 µM (inactive)
same,IC50,[12],> 80 µM (inactive)
same,IC50,[6],9.7 µM (active)
Cc1nn(-c2cccc(Cl)c2)c2nc(C(F)(F)F)[nH]c(=O)c12,EC50,[13],3.35 µM (active)
same,EC50,[14],> 53 µM (inactive)
same,IC50,[15],2.6 µM (active)
O=C(Nc1cccc(S(=O)(=O)Nc2ccccc2F)c1)c1ccc2ccccc2n1,IC50,[4],> 100 µM (inactive)
same,IC50,[6],15.6 µM (active)
CCOC(=O)C1(Cc2cccc(OC)c2)CCN(Cc2cccn2-c2nccs2)CC1,CC50,[16],> 50 µM (active)
same,IC50,cells,10.2 µM (active)
CCNC(=O)C1=C(O)c2sccc2N(C)S1(=O)=O,IC50,[17],50 µM (inactive)
Fc1cccc(-c2n[nH]c(=S)n2-c2ccccc2)c1,IC50,[4],> 100 µM (inactive)
same,IC50,[6],4.26 µM (active)
Cc1cc(C)nc(NC(=N)Nc2ccc(CC(=O)OC(C)C)cc2)n1,AC50,[9],22.1 µM (active)
CC(C)C(=O)Nc1ccc(-c2nc3cccnc3o2)cc1,EC50,HT-1080,> 50 µM (not active)
same,EC50,[2],< 0.2 µM (active)
O=C1NC(c2ccc3c(c2)OCO3)Oc2ccccc21 (stereo not drawn),IC50,[17],> 64 µM (inactive)
Cc1ccccc1CC1(CO)CCCN(Cc2c(C)nn(C)c2Cl)C1 (stereo not drawn),CC50,[16],49.4 µM (active)
same,IC50,cells,7.18 µM (active)
O=C(N/N=C/c1ccc(O)cc1)c1cccc(N/N=C/c2ccc(O)cc2)c1,IC50,[18],6.06 µM (active)
C/C(=N\NC(=O)c1cccc(N/N=C(\C)c2ccccc2)c1)c1ccccc1,IC50,Coagulation factor XII,> 50 µM (inactive)
C[C@@H]1CN([C@@H](C)CO)C(=O)c2cccc(NC(=O)c3ccc(-c4nccs4)cc3)c2O[C@H]1CN(C)Cc1ccc(Cl)c(Cl)c1,AC50,[19],922 nM (active)
same,AC50,[20],692 nM (active)
same,AC50,[21],1.25 µM (active)
same,AC50,[22],1.7 µM (active)

# Source: ChEMBL document CHEMBL1201862, “PubChem BioAssay data set” (2004)
